How the values were obtained:
[1] = target: human CB1 receptor (hCB1) (Homo sapiens, UniProt P21554); assay: cell-based; assay type: cell-based; settings: for +/− HCB1: agonist or inverse agonist at hCB1
Procedure, shortened: (§1)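 First, cells in IBMX-containing HEPES-buffered HBSS are raised to elevated cAMP with 2-8 μM NKH-477 for 30 min. Data are normalised to the forskolin and forskolin + 1 μM CP55,940 controls.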

rat CB2 receptor (rCB2) = target: T1, rat CB2 receptor (rCB2) (Rattus norvegicus, UniProt Q9QZN9); assay: cell-based; assay type: cell-based; settings: for +/− RCB2: agonist or inverse agonist at rCB2
T1 sequence (Q9QZN9 1-360): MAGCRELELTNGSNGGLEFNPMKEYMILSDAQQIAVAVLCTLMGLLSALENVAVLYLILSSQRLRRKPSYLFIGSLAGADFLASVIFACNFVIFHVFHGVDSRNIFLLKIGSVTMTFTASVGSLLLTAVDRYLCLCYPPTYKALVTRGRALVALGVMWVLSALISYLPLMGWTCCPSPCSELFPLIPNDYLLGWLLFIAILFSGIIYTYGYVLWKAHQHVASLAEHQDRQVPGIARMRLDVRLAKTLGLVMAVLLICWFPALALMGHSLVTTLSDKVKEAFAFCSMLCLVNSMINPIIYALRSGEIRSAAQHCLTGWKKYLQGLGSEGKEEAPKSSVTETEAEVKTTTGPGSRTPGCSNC
Procedure, shortened: as §1

Chain of human CB1 receptor (hCB1) (P21554 whole entry): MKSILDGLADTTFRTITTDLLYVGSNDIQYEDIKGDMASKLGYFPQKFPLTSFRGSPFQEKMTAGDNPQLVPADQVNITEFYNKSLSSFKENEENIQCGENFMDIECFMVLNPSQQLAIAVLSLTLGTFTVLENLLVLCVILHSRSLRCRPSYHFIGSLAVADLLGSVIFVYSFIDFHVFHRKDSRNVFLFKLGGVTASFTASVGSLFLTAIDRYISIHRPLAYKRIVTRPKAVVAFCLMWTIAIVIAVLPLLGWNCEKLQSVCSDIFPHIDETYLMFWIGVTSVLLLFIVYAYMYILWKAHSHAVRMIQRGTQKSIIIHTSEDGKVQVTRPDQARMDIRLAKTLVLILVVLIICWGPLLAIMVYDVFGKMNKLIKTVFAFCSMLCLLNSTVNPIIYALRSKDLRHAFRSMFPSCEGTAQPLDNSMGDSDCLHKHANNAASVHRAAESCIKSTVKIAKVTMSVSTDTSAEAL

| Structure (SMILES) | EC50 [1] [µM] | +/− RCB2 (rat CB2 receptor (rCB2)) | EC50 (rat CB2 receptor (rCB2)) [µM] | +/− HCB1 [1] |
| --- | --- | --- | --- | --- |
| COCCNC(=O)[C@@H](NC(=O)c1nc(-c2ccccc2)n2c1CN(C)CCC2)C(C)(C)C [Compound 475, (S)-N-(1-(2-methoxyethylamino)-3,3-dimethyl-1-oxobutan-2-yl)-8-methyl-3-phenyl-6,7,8,9-tetrahydro-5H-imidazo[1,5-a][1,4]diazepine-1-carboxamide] | > 10 | + |  |  |
| CN1CCCn2c(-c3ccccc3)nc(C(=O)N[C@H](C(=O)NCCF)C(C)(C)C)c2C1 [Compound 476, (S)-N-(1-(2-fluoroethylamino)-3,3-dimethyl-1-oxobutan-2-yl)-8-methyl-3-phenyl-6,7,8,9-tetrahydro-5H-imidazo[1,5-a][1,4]diazepine-1-carboxamide] | > 10 | + |  |  |
| CN1CCCn2c(-c3ccccc3)nc(C(=O)N[C@H](C(=O)NC3CC3)C(C)(C)C)c2C1 [Compound 477, (S)-N-(1-(cyclopropylamino)-3,3-dimethyl-1-oxobutan-2-yl)-8-methyl-3-phenyl-6,7,8,9-tetrahydro-5H-imidazo[1,5-a][1,4]diazepine-1-carboxamide] | > 10 | + |  |  |
| CCNC(=O)[C@@H](NC(=O)c1nc(-c2ccccc2)n2c1CN(C)CCC2)C(C)(C)C [Compound 478, (S)-N-(1-(ethylamino)-3,3-dimethyl-1-oxobutan-2-yl)-8-methyl-3-phenyl-6,7,8,9-tetrahydro-5H-imidazo[1,5-a][1,4]diazepine-1-carboxamide] | > 10 | + |  |  |
| CN1CCCn2c(-c3ccccc3)nc(C(=O)N[C@H](C(=O)NCC3CCOCC3)C(C)(C)C)c2C1 [Compound 479, (S)-N-(3,3-dimethyl-1-oxo-1-((tetrahydro-2H-pyran-4-yl)methylamino)butan-2-yl)-8-methyl-3-phenyl-6,7,8,9-tetrahydro-5H-imidazo[1,5-a][1,4]diazepine-1-carboxamide] | > 10 | + |  |  |
| CN1CCCn2c(-c3ccccc3)nc(C(=O)N[C@H](C(=O)NC3CCC3)C(C)(C)C)c2C1 [Compound 480, (S)-N-(1-(cyclobutylamino)-3,3-dimethyl-1-oxobutan-2-yl)-8-methyl-3-phenyl-6,7,8,9-tetrahydro-5H-imidazo[1,5-a][1,4]diazepine-1-carboxamide] | > 10 |  | > 10 |  |
| CNC(=O)[C@@H](NC(=O)c1nc(-c2ccccc2)n2c1C[N+](C)(C)CCC2)C(C)(C)C [Compound 481, (S)-1-(3,3-dimethyl-1-(methylamino)-1-oxobutan-2-ylcarbamoyl)-8,8-dimethyl-3-phenyl-6,7,8,9-tetrahydro-5H-imidazo[1,5-a][1,4]diazepin-8-ium] | > 10 |  | > 10 |  |
| CNC(=O)[C@@H](NC(=O)c1nc(-c2ccc(Cl)cc2F)n2c1CN(c1ncccn1)CCC2)C(C)(C)C [Compound 482, 3-(4-chloro-2-fluorophenyl)-N-(3,3-dimethyl-1-(methylamino)-1-oxobutan-2-yl)-8-(pyrimidin-2-yl)-6,7,8,9-tetrahydro-5H-imidazo[1,5-a][1,4]diazepine-1-carboxamide] |  | + |  | + |
| CNC(=O)[C@@H](NC(=O)c1nc(-c2ccccc2)n2c1CN(c1ncccn1)CCC2)C(C)(C)C [Compound 483, (S)-N-(3,3-dimethyl-1-(methylamino)-1-oxobutan-2-yl)-3-phenyl-8-(pyrimidin-2-yl)-6,7,8,9-tetrahydro-5H-imidazo[1,5-a][1,4]diazepine-1-carboxamide] |  | − |  | + |
| CCCCCc1nc(C(=O)N[C@H](C(=O)NC)C(C)(C)C)c2n1CCCN(C)C2 [Compound 484, (S)-N-(3,3-dimethyl-1-(methylamino)-1-oxobutan-2-yl)-8-methyl-3-pentyl-6,7,8,9-tetrahydro-5H-imidazo[1,5-a][1,4]diazepine-1-carboxamide] | > 10 |  | > 10 |  |
| CCCc1nc(C(=O)N[C@H](C(=O)NC)C(C)(C)C)c2n1CCCN(C)C2 [Compound 485, (S)-N-(3,3-dimethyl-1-(methylamino)-1-oxobutan-2-yl)-8-methyl-3-propyl-6,7,8,9-tetrahydro-5H-imidazo[1,5-a][1,4]diazepine-1-carboxamide] | > 10 | + |  |  |
| CNC(=O)[C@@H](NC(=O)c1nc(CC(C)C)n2c1CN(C)CCC2)C(C)(C)C [Compound 486, (S)-N-(3,3-dimethyl-1-(methylamino)-1-oxobutan-2-yl)-3-isobutyl-8-methyl-6,7,8,9-tetrahydro-5H-imidazo[1,5-a][1,4]diazepine-1-carboxamide] | > 10 | + |  |  |
| CNC(=O)[C@@H](NC(=O)c1nc(C2CCCCC2)n2c1CN(C)CCC2)C(C)(C)C [Compound 487, (S)-3-cyclohexyl-N-(3,3-dimethyl-1-(methylamino)-1-oxobutan-2-yl)-8-methyl-6,7,8,9-tetrahydro-5H-imidazo[1,5-a][1,4]diazepine-1-carboxamide] | > 10 | + |  |  |
| CNC(=O)[C@@H](NC(=O)c1nc(CCC(C)(C)C)n2c1CN(C)CCC2)C(C)(C)C [Compound 488, (S)-N-(3,3-dimethyl-1-(methylamino)-1-oxobutan-2-yl)-3-(3,3-dimethylbutyl)-8-methyl-6,7,8,9-tetrahydro-5H-imidazo[1,5-a][1,4]diazepine-1-carboxamide] | > 10 | + |  |  |
| CNC(=O)[C@@H](NC(=O)c1nc(CCCOC)n2c1CN(C)CCC2)C(C)(C)C [Compound 489, (S)-N-(3,3-dimethyl-1-(methylamino)-1-oxobutan-2-yl)-3-(3-methoxypropyl)-8-methyl-6,7,8,9-tetrahydro-5H-imidazo[1,5-a][1,4]diazepine-1-carboxamide] | > 10 | + |  |  |
| CNC(=O)[C@@H](NC(=O)c1nc(CCC2CC2)n2c1CN(C)CCC2)C(C)(C)C [Compound 490, (S)-3-(2-cyclopropylethyl)-N-(3,3-dimethyl-1-(methylamino)-1-oxobutan-2-yl)-8-methyl-6,7,8,9-tetrahydro-5H-imidazo[1,5-a][1,4]diazepine-1-carboxamide] | > 10 | + |  |  |
| CCCCCCc1nc(C(=O)N[C@H](C(=O)NC)C(C)(C)C)c2n1CCCN(C)C2 [Compound 491, (S)-N-(3,3-dimethyl-1-(methylamino)-1-oxobutan-2-yl)-3-hexyl-8-methyl-6,7,8,9-tetrahydro-5H-imidazo[1,5-a][1,4]diazepine-1-carboxamide] | > 10 | + |  |  |
| CCc1nc(C(=O)N[C@H](C(=O)NC)C(C)(C)C)c2n1CCCN(C)C2 [Compound 492, (S)-N-(3,3-dimethyl-1-(methylamino)-1-oxobutan-2-yl)-3-ethyl-8-methyl-6,7,8,9-tetrahydro-5H-imidazo[1,5-a][1,4]diazepine-1-carboxamide] | > 10 | − |  |  |
| CNC(=O)[C@@H](NC(=O)c1nc(CCC2CCCCC2)n2c1CN(C)CCC2)C(C)(C)C [Compound 493, (S)-3-(2-cyclohexylethyl)-N-(3,3-dimethyl-1-(methylamino)-1-oxobutan-2-yl)-8-methyl-6,7,8,9-tetrahydro-5H-imidazo[1,5-a][1,4]diazepine-1-carboxamide] | > 10 | − |  |  |
| CNC(=O)[C@@H](NC(=O)c1nc(CCCC2CCCC2)n2c1CN(C)CCC2)C(C)(C)C [Compound 494, (S)-3-(3-cyclopentylpropyl)-N-(3,3-dimethyl-1-(methylamino)-1-oxobutan-2-yl)-8-methyl-6,7,8,9-tetrahydro-5H-imidazo[1,5-a][1,4]diazepine-1-carboxamide] | > 10 | − |  |  |
| CNC(=O)[C@@H](NC(=O)c1nc(CCc2ccsc2)n2c1CN(C)CCC2)C(C)(C)C [Compound 495, (S)-N-(3,3-dimethyl-1-(methylamino)-1-oxobutan-2-yl)-8-methyl-3-(2-(thiophen-3-yl)ethyl)-6,7,8,9-tetrahydro-5H-imidazo[1,5-a][1,4]diazepine-1-carboxamide] | > 10 | + |  |  |
| CNC(=O)[C@@H](NC(=O)c1nc(C(C)C)n2c1CN(C)CCC2)C(C)(C)C [Compound 496, (S)-N-(3,3-dimethyl-1-(methylamino)-1-oxobutan-2-yl)-3-isopropyl-8-methyl-6,7,8,9-tetrahydro-5H-imidazo[1,5-a][1,4]diazepine-1-carboxamide] | > 10 | + |  |  |
| CNC(=O)[C@@H](NC(=O)c1nc(C2CCCCCC2)n2c1CN(C)CCC2)C(C)(C)C [Compound 498, (S)-3-cycloheptyl-N-(3,3-dimethyl-1-(methylamino)-1-oxobutan-2-yl)-8-methyl-6,7,8,9-tetrahydro-5H-imidazo[1,5-a][1,4]diazepine-1-carboxamide] |  | + |  | + |
| CNC(=O)[C@@H](NC(=O)c1nc(C2CCC(C)CC2)n2c1CN(C)CCC2)C(C)(C)C (stereo partly drawn) [Compound 499, (S)-N-(3,3-dimethyl-1-(methylamino)-1-oxobutan-2-yl)-8-methyl-3-(4-methylcyclohexyl)-6,7,8,9-tetrahydro-5H-imidazo[1,5-a][1,4]diazepine-1-carboxamide] | > 10 | + |  |  |

Source: US7517874B2 (priority 2007, dated 2009)
